Reference: ChEMBL document CHEMBL1201862, “PubChem BioAssay data set” (2004)
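Where inhibition never reached the appropriate level, the endpoint shown equals the highest concentration tested. Otherwise, values were interpolated linearly from a five-concentration, 48-hour dose response in 96-well plates. Abbreviation: GI50, concentration required for 50% inhibition of growth.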 Active and inactive are the calls of the source. No stated cut-off is given here; in the data, active = GI50 up to about 1.1 µM and inactive = higher.

Legend:
Assay in all cases: growth of human tumour cells (NCI), 48 h
SF-539 = tested on: SF-539
OVCAR-5 = tested on: OVCAR-5
U-251 = tested on: U-251
OVCAR-3 = tested on: OVCAR-3
HOP-92 = tested on: HOP-92
SF-268 = tested on: SF-268
A498 = tested on: A498
MCF7 = tested on: MCF7
HOP-62 = tested on: HOP-62
SR = tested on: SR
RXF 393 = tested on: RXF 393
NCI-H226 = tested on: NCI-H226
HCT-116 = tested on: HCT-116
UACC-62 = tested on: UACC-62
ACHN = tested on: ACHN
786-0 = tested on: 786-0
MDA-MB-231 = tested on: MDA-MB-231
Malme-3M = tested on: Malme-3M
SK-MEL-2 = tested on: SK-MEL-2
IGROV-1 = tested on: IGROV-1

Structure (SMILES)	GI50 (SF-539)	GI50 (OVCAR-5)	GI50 (U-251)	GI50 (OVCAR-3)	GI50 (HOP-92)	GI50 (SF-268)	GI50 (A498)	GI50 (MCF7)	GI50 (HOP-62)	GI50 (SR)	GI50 (RXF 393)	GI50 (NCI-H226)	GI50 (HCT-116)	GI50 (UACC-62)	GI50 (ACHN)	GI50 (786-0)	GI50 (MDA-MB-231)	GI50 (Malme-3M)	GI50 (SK-MEL-2)	GI50 (IGROV-1)
CCOC(=O)c1c(N2CCCC2)[nH]c(=O)c(C(c2ccc(Cl)c([N+](=O)[O-])c2)c2c(O)c(C(=O)OCC)c(N3CCCC3)[nH]c2=O)c1O	19.2 µM (inactive)	30.2 µM (inactive)	14.9 µM (inactive)	29.9 µM (inactive)	18.5 µM (inactive)	23 µM (inactive)	33 µM (inactive)	28.6 µM (inactive)	27.4 µM (inactive)	40.3 µM (inactive)	31.7 µM (inactive)	63.5 µM (inactive)	34 µM (inactive)	26.8 µM (inactive)	34.3 µM (inactive)	27.2 µM (inactive)	22 µM (inactive)	38.9 µM (inactive)		
Cc1ccccc1NC(=S)N/N=C(/c1ccccc1)c1ccccn1	0.384 µM (active)	< 0.0165 µM (active)	< 0.01 µM (active)	< 0.01 µM (active)	0.283 µM (active)	0.0904 µM (active)	0.398 µM (active)	0.0215 µM (active)	0.0331 µM (active)	< 0.0262 µM (active)	0.589 µM (active)	0.0295 µM (active)	< 0.01 µM (active)	0.171 µM (active)	< 0.01 µM (active)	< 0.0214 µM (active)	< 0.01 µM (active)		3.36 µM (inactive)	< 0.01 µM (active)
O=[N+]([O-])/C(Cl)=C/C(=C1/Nc2ccccc2O1)[N+](=O)[O-]	15.5 µM (inactive)		12.8 µM (inactive)	19.3 µM (inactive)	24.7 µM (inactive)	16.3 µM (inactive)	19 µM (inactive)	29.6 µM (inactive)	33.7 µM (inactive)	8.71 µM (inactive)	18.1 µM (inactive)	27.4 µM (inactive)	13.9 µM (inactive)	23.4 µM (inactive)	18.1 µM (inactive)	31.8 µM (inactive)	30.1 µM (inactive)	14.3 µM (inactive)		33.1 µM (inactive)
COc1ccc(-c2nnc3n(Cc4ccccc4)c4ccccc4n3c2=O)cc1	13.2 µM (inactive)	42.8 µM (inactive)	19.9 µM (inactive)		19.4 µM (inactive)	22.7 µM (inactive)	22.7 µM (inactive)	29.4 µM (inactive)	1.92 µM (inactive)	> 100 µM (inactive)	26.8 µM (inactive)	17.4 µM (inactive)	38.7 µM (inactive)		15.2 µM (inactive)	10.9 µM (inactive)	26.1 µM (inactive)	51.9 µM (inactive)	14.8 µM (inactive)	13.3 µM (inactive)
Cc1nn(C)c2nc3ccc(Cl)cc3c(-c3ccccc3)c12	> 100 µM (inactive)	95.3 µM (inactive)	> 100 µM (inactive)	> 100 µM (inactive)	> 100 µM (inactive)	> 100 µM (inactive)	> 100 µM (inactive)	> 100 µM (inactive)	> 100 µM (inactive)	> 100 µM (inactive)	> 100 µM (inactive)	> 100 µM (inactive)	> 100 µM (inactive)	> 100 µM (inactive)	> 100 µM (inactive)	> 100 µM (inactive)	> 100 µM (inactive)	> 100 µM (inactive)	> 100 µM (inactive)	
NN/C(=N\S(=O)(=O)c1cc2ccccc2s1)Nc1ccc(Cl)cc1	16.1 µM (inactive)	21.1 µM (inactive)	17.7 µM (inactive)	18.9 µM (inactive)	19 µM (inactive)	22.8 µM (inactive)	19.9 µM (inactive)	20.2 µM (inactive)	18.8 µM (inactive)	40.1 µM (inactive)	15.5 µM (inactive)	19.3 µM (inactive)	16.9 µM (inactive)	17.5 µM (inactive)	23.1 µM (inactive)	19.6 µM (inactive)	20.1 µM (inactive)		18.1 µM (inactive)	17.3 µM (inactive)
O=C(CCc1ccccc1CO)NCCc1ccccc1	> 100 µM (inactive)	> 100 µM (inactive)	> 100 µM (inactive)	> 100 µM (inactive)	> 100 µM (inactive)	> 100 µM (inactive)	> 100 µM (inactive)	> 100 µM (inactive)	> 100 µM (inactive)	> 100 µM (inactive)	> 100 µM (inactive)	> 100 µM (inactive)	> 100 µM (inactive)	> 100 µM (inactive)	> 100 µM (inactive)	> 100 µM (inactive)	> 100 µM (inactive)		> 100 µM (inactive)	> 100 µM (inactive)
